Data: patent US8992932B2, “Binder-drug conjugates (ADCs) and use thereof” (Seattle Genetics, Inc., priority 2011, dated 2015)

Assays:
Caco-2 cells = test: Cell permeability flux assay using Caco-2 cells; assay type: in vitro ADME; conditions: basal to apical, 2 hours
Description: The cell permeability of a substance can be investigated by means of in vitro testing in a flux assay using Caco-2 cells [M. D. Troutman and D R Thakker, Pharm. Res. 20 (8), 1210-1224 (2003)]. For this purpose, the cells were cultured for 15-16 days on 24-well filter plates. For the determination of permeation, the respective working example was applied in a HEPES buffer to the cells either apically (A) or basally (B) and incubated for 2 hours. After 0 hours and after 2 hours, samples were taken from the cis and trans compartments. The samples were separated by HPLC (Agilent 1200, Boblingen, Germany) using reverse phase columns. The HPLC system was coupled via a Turbo Ion Spray Interface to a Triple Quadropol mass spectrometer API 4000 (Applied Biosystems Applera, Darmstadt, Germany). The permeability was evaluated on the basis of a Papp value, which was calculated using the formula published by Schwab et al. [D. Schwab et al., J. Med. Chem. 46, 1716-1725 (2003)].

P-glycoprotein (P-gp) = molecular target: T1, P-glycoprotein (P-gp) (Homo sapiens, UniProt P08183); test: P-gp substrate flux assay in L-MDR1 cells; assay type: in vitro ADME; conditions: L-MDR1 cells (P-gp overexpressing LLC-PK1); basal to apical; 2 hours
T1 construct: expressed in transfected cells; host or cells: LLC-PK1 (pig kidney) cells transfected with human MDR1 (L-MDR1 cells)
Description: The substrate properties of a substance for P-gp (ABCB1) were determined by means of a flux assay using LLC-PK1 cells which overexpress P-gp (L-MDR1 cells) [A. H. Schinkel et al., J. Clin. Invest. 96, 1698-1705 (1995)]. For this purpose, the LLC-PK1 cells or L-MDR1 cells were cultured on 96-well filter plates for 3-4 days. For determination of the permeation, the respective test substance, alone or in the presence of an inhibitor (such as Ivermectin or Verapamil, for example), was applied in a HEPES buffer to the cells either apically (A) or basally (B) and incubated for 2 hours. After 0 hours and after 2 hours, samples were taken from the cis and trans compartments. The samples were separated by HPLC using reverse phase columns. The HPLC system was coupled via a Turbo Ion Spray Interface to a Triple Quadropol mass spectrometer API 3000 (Applied Biosystems Applera, Darmstadt, Germany). The permeability was evaluated on the basis of a Papp value which was calculated using the formula published by Schwab et al. [D. Schwab et al., J. Med. Chem. 46, 1716-1725 (2003)].

tubulin = test: Fluorescence-based microtubule polymerisation assay (DAPI); assay type: biochemical
Description: Tubulin polymerization was investigated using the “Fluorescence-based Microtubule Polymerisation Assay Kit” from Cytoskeleton (Denver, Colo., USA; order number: BK011). With this assay, GTP is added to unpolymerized tubulin, allowing polymerization to take place spontaneously. The assay is based on the binding of the fluorophore 4′,6-diamidino-2-phenylindole (DAPI) to tubulin. Free and bound DAPI can be differentiated on the basis of different emission spectra.
[…] In addition to the buffer control, paclitaxel, with a polymerization-increasing effect, and vinblastin, with a polymerization inhibiting effect, were run additionally as assay controls. Measurement was carried out using 96-well plates with a half base area. The kinetics of the tubulin polymerization were monitored in a Fluorimeter at 37° C. for 1 hour. The excitation wavelength was 355 nm, and emission was monitored at 460 nm. For the region of linear increase within the first 10 minutes, a calculation was made of the change in fluorescence per minute (AF/min), which represents the polymerization rate of the microtubuli. The potency of the test substances was quantified on the basis of their respective reduction of the polymerization rate.

T1 sequence (P08183 whole entry): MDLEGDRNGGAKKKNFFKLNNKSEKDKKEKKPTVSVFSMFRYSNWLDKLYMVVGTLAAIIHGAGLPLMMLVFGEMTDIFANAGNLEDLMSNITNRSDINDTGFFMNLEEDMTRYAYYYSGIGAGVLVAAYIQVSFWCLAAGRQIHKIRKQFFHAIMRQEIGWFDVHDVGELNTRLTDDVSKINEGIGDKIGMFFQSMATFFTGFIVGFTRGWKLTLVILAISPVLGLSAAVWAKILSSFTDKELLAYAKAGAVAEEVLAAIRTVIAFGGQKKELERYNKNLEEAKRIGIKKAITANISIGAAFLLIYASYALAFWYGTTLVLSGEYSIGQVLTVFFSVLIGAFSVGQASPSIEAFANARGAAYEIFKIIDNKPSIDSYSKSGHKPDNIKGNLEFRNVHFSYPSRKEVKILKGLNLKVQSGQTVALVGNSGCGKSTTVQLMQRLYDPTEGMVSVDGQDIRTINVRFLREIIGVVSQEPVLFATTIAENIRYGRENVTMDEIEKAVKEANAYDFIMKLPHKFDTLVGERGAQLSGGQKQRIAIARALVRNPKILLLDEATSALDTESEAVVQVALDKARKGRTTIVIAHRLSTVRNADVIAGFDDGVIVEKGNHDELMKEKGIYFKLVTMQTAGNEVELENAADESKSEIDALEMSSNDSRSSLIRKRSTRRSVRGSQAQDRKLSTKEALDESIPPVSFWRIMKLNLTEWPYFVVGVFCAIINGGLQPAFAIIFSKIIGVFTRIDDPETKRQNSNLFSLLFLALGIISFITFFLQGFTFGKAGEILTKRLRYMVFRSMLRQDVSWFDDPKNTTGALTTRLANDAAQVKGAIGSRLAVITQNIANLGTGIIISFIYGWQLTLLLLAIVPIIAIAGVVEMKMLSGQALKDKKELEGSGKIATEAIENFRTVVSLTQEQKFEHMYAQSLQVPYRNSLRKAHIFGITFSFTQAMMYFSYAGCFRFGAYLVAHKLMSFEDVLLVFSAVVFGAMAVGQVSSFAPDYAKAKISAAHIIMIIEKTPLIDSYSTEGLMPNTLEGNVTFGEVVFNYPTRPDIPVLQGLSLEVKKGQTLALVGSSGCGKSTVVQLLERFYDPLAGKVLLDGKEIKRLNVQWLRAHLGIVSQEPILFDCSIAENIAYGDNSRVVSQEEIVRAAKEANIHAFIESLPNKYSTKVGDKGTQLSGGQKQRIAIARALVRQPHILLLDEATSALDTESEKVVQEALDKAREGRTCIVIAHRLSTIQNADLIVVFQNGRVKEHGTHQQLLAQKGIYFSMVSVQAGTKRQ

N-[6-(3-{[(2R)-2-Amino-2-carboxyethyl]sulphanyl}-2,5-dioxopyrrolidin-1-yl)hexyl]-N-methyl-L-valyl-N-[(3R,4S,5S)-1-{(2S)-2-[(1R,2R)-3-{R1S)-1-carboxy-2-(1H-indol-3-yl)ethyl]amino}-1-methoxy-2-methyl-3-oxopropyl]pyrrolidin-1-yl}-3-methoxy-5-methyl-1-oxoheptan-4-yl]-N-methyl-L-valinamide [Example 75]
Papp (B-A) (Caco-2 cells): 0.1 ×10⁻⁶ cm/s | Papp (B-A) (P-glycoprotein (P-gp)): 0.4 ×10⁻⁶ cm/s | Tubulin polymerization in the presence of toxophore in [%]. Tubulin polymerization rate at 1 μM MMAF set at 100% (tubulin; toxophore 1 μM): 107% | Tubulin polymerization in the presence of toxophore in [%]. Tubulin polymerization rate at 1 μM MMAF set at 100% (tubulin; toxophore 10 μM): 25%
